Laboratory results as given in article PMC13315578.

Assays:
Min Elp3 [1] = target: T1, Min Elp3 (Methanocaldococcus infernus, UniProt D5VRB9); assay: microscale thermophoresis, hill fit; type: binding; conditions: anaerobic, pH 7.5, room temperature; His-tagged protein labelled with iFluor 647-Tris NTA; no tRNA
T1 construct: gene Metin_0452; E. coli codon-optimized gene, N-terminal 6xHis tag with TEV site (pET28a-tev), tag kept for MST; E. coli BL21(DE3) host with isc operon; anaerobically purified, [4Fe-4S] cluster chemically reconstituted
T1 sequence (D5VRB9 1-534): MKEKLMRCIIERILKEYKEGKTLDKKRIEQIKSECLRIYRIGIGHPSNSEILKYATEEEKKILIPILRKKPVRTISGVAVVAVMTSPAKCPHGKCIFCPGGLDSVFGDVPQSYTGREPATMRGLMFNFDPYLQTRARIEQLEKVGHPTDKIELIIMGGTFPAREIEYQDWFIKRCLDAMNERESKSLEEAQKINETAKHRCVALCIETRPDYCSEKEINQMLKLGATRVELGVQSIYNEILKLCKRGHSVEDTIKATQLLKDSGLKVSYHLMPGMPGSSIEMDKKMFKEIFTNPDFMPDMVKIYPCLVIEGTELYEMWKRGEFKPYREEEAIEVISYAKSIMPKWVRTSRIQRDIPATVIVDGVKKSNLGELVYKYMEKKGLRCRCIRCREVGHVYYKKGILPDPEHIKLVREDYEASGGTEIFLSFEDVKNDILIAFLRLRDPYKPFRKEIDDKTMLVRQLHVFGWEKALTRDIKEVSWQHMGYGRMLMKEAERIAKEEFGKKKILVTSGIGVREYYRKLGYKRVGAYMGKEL

Min Elp3 [2] = target: T2, Min Elp3 (Methanocaldococcus infernus, UniProt D5VRB9, K302A); assay: microscale thermophoresis, hill fit; type: binding; conditions: anaerobic, pH 7.5, room temperature; His-tagged protein labelled with iFluor 647-Tris NTA; no tRNA
T2 construct: gene Metin_0452; E. coli codon-optimized gene, N-terminal 6xHis tag with TEV site (pET28a-tev), tag kept for MST; E. coli BL21(DE3) host with isc operon; anaerobically purified, [4Fe-4S] cluster chemically reconstituted
T2 sequence (D5VRB9 whole entry K302A): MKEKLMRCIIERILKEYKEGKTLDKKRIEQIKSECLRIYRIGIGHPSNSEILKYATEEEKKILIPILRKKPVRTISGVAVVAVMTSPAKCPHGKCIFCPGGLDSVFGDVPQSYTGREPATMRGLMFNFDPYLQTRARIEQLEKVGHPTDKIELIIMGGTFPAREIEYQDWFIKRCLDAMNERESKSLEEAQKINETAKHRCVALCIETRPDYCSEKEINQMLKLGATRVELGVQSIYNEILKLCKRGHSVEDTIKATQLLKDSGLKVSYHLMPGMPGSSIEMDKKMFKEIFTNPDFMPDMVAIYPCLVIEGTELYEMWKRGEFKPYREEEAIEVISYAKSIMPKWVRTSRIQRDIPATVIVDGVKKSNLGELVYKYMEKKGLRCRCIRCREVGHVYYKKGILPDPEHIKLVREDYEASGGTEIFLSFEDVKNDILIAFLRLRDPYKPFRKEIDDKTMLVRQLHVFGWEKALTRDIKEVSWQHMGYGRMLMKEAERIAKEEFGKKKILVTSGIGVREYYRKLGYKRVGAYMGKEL

Min Elp3 [3] = target: T3, Min Elp3 (Methanocaldococcus infernus, UniProt D5VRB9, M156W); assay: microscale thermophoresis, hill fit; type: binding; conditions: anaerobic, pH 7.5, room temperature; His-tagged protein labelled with iFluor 647-Tris NTA; no tRNA
T3 construct: gene Metin_0452; E. coli codon-optimized gene, N-terminal 6xHis tag with TEV site (pET28a-tev), tag kept for MST; E. coli BL21(DE3) host with isc operon; anaerobically purified, [4Fe-4S] cluster chemically reconstituted
T3 sequence (D5VRB9 whole entry M156W): as the sequence (D5VRB9 whole entry K302A) above, with M156W, A302K counted along it

Min Elp3 [4] = target: T4, Min Elp3 (Methanocaldococcus infernus, UniProt D5VRB9, Y304A); assay: microscale thermophoresis, hill fit; type: binding; conditions: anaerobic, pH 7.5, room temperature; His-tagged protein labelled with iFluor 647-Tris NTA; no tRNA
T4 construct: gene Metin_0452; E. coli codon-optimized gene, N-terminal 6xHis tag with TEV site (pET28a-tev), tag kept for MST; E. coli BL21(DE3) host with isc operon; anaerobically purified, [4Fe-4S] cluster chemically reconstituted
T4 sequence (D5VRB9 whole entry Y304A): as the sequence (D5VRB9 whole entry K302A) above, with A302K, Y304A counted along it

Min Elp3 [5] = target: T5, Min Elp3 (Methanocaldococcus infernus, UniProt D5VRB9, E207A); assay: microscale thermophoresis, hill fit; type: binding; conditions: anaerobic, pH 7.5, room temperature; His-tagged protein labelled with iFluor 647-Tris NTA; no tRNA
T5 construct: gene Metin_0452; E. coli codon-optimized gene, N-terminal 6xHis tag with TEV site (pET28a-tev), tag kept for MST; E. coli BL21(DE3) host with isc operon; anaerobically purified, [4Fe-4S] cluster chemically reconstituted
T5 sequence (D5VRB9 whole entry E207A): as the sequence (D5VRB9 whole entry K302A) above, with E207A, A302K counted along it

Min Elp3 WT = target: T6, Min Elp3 WT (Methanocaldococcus infernus, UniProt D5VRB9 1-534); assay: EMSA; EMSA: 250 nM tRNA, 0-20 uM Elp3, 100 mM HEPES pH 7.5, 750 mM NaCl, 25 mM DTT, 20 °C 30 min; 5% TBE gel at 4 °C; conditions: protein: recombinant; tags: N-terminal 6xHis-TEV site (pET28a-tev); tRNA fold, annealed
T6 sequence: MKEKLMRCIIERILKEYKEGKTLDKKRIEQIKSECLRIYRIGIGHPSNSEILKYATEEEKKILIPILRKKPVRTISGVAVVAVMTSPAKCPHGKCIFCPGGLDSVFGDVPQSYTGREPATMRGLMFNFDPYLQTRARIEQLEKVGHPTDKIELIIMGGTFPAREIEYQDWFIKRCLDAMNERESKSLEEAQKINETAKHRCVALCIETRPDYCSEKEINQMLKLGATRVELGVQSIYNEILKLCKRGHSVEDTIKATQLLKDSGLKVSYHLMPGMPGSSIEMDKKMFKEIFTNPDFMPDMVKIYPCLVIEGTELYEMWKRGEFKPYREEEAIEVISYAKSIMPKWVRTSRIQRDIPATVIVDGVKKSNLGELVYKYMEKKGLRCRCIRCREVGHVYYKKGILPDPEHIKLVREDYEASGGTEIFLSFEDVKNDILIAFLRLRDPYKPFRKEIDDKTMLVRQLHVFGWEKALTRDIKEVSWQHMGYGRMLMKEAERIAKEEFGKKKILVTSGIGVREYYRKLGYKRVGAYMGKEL

Molecule | KD (Min Elp3 [1]) | KD (Min Elp3 [2]) | KD (Min Elp3 [3]) | KD (Min Elp3 [4]) | KD (Min Elp3 [5]) | binding result (Min Elp3 WT)
C[S+](CC[C@H](N)C(=O)O)C[C@H]1O[C@@H](n2cnc3c(N)ncnc32)[C@H](O)[C@@H]1O (stereo partly drawn) [SAM] | Elp3-SAM binding was measured by triplicate microscale thermophoresis (MST) assays | K302A (light blue squares), and Y304A (cyan triangles) mutants bind cofactor SAM | Elp3 M156W (light blue squares) binds cofactor SAM with comparable affinity to WT Elp3 | Y304A (cyan triangles) mutants bind cofactor SAM with comparable affinity to WT Elp3 | E207A (dark blue triangles), K302A (light blue squares), and Y304A (cyan triangles) mutants bind cofactor SAM | 
tRNA ArgUCU (structured_RNA) RNA: GGACCCGUAGCCUAGCCUGGAUAGGGCACCGGCCUUCUAAGCCGGGGGUCGGGGGUUCAAAUCCCCCCGGGUCCGCCA |  |  |  |  |  | binds
